Measured values: patent US20130046003A1, “PHARMACEUTICAL COMPOSITIONS COMPRISING 4-BROMO-N-(IMIDAZOLIDIN-2-YLIDENE)-1H-BENZIMIDAZOL-5-AMINE FOR TREATING RETINAL DISEASES” (priority 2011, published 2013)

Experiments:
[1] = rats, after an oral dose of brimonidine tartrate; cited from earlier work
[2] = normal DB rabbits, intravenous route, 10-30 minutes post-dose
Description: Rabbits were dosed with 4-bromo-N-(imidazolidin-2-ylidene)-1H-benzimidazol-5-amine through intravenous route. Spatial sweep visual evoked potential (sVEP) acuity was assessed with PowerDiva software version 1.8. Recordings were made bilaterally in conscious animals.

[3] = test system: alpha 2-adrenergic receptor; details: known from prior art; all three alpha-2 receptor subtypes; cited from earlier work
[4] = test system: retina damage caused by blue light; details: rats, 1 mg/kg IP one hour before 4 hours blue light exposure (6100-6500 lux); OCT at 7 days post exposure; versus saline
Description: Drugs were administered via intraperitoneal injection (IP) at a dose of 1 mg/kg one hour before blue light exposure.
Twenty 4-month old male Sprague-Dawley rats (body weight 470-550 g) were used in this study. The animals were exposed to room light on a 12 hour lighV12 hour dark cycle before the experiment. All animals were dark adapted overnight (16-20 hours) before blue light exposure. Under the intensity of 6100-6500 lux, rats were exposed to blue light for 4 hours. After the blue light, rats were placed in the dark for another 3 days before returning to normal 12 hour light/12 hour dark. Ocular Coherence Tomography (OCT) measurement was performed at 7 days post blue light exposure.

Row | SMILES | amount found in urine [1] | visual acuity (sVEP acuity) [2] | alpha 2-adrenergic receptor agonist activity [3] | protection of the retina from damage caused by blue light (retinal thickness measured by OCT) [4]
1 | Brc1c(N=C2NCCN2)ccc2[nH]cnc12 [4-bromo-N-(imidazolidin-2-ylidene)-1H-benzimidazol-5-amine] | trace amounts | enhanced visual acuity | potent alpha 2-adrenergic receptor pan agonist, activating all three alpha-2 receptor subtypes | 
2 | Brc1c(N=C2NCCN2)ccc2nccnc12 [brimonidine, (5-bromo-quinoxalin-6-yl)-imidazolidin-2-ylidene-amine, reference compound] |  |  |  | significantly reduced and protected the retina from the damage caused by blue light
